Test system: LDLs
Test: Quantities of drug incorporated into LDLs
Format: physicochemical
Settings: ametantrone and mitoxantrone and esters; per particle of LDL; ametantrone esters by optical density at 614 nm; incubation 18 hours at 37° C.
Procedure: One mg of drug is dissolved in the minimum quantity of an organic solvent (chloroform) then the solvent is evaporated under reduced pressure.
Two hundred μl of washed Endolipide are then added. The tube is shaken vigorously, swirling for 1 minute to dissolve the drug in the lipid phase. The LDLs are then added in a quantity containing 1 mg of proteins, assayed by the method of Lowry modified by Peterson (see Lowry et al., J. Biol. Chem. 193, 265-275 (1951)) and 5 ml of LPDS. After stirring, the mixture is incubated for 18 hours at 37° C.
The LDLs are then separated by ultracentrifugation according to a KBr density gradient (centrifugation for 24 hours at 4° C. and 40,000 rpm).
The modified LDLs are then dialyzed against an NaCl solution, 140 mM, pH 8, then filtered under sterile conditions (0.22 μm) and stored under nitrogen.
drugs (on the modified LDLs): the ametantrone esters were tested after precipitation of apolipoprotein B with isopropanol. For this purpose, 100 μl of LDL are added to 100 μl of isopropanol and stirred for 1 minute then left to stand overnight at 10° C. with stirring. The mixture is then centrifuged for 30 minutes at 300 rpm. The supernatant is removed and evaporated. The residue is treated with 1 ml of chloroform. The optical density is read off at a wavelength of 614 nm and compared to a reference range of the drug.
The elliptinium esters are tested by HPLC according to the technique described by Samadi-Baboli (thesis cited above).

Row | SMILES | quantity of drug incorporated into LDLs (uptake)
1 | CC/C=C\C/C=C\C/C=C\CCCCCCCC(=O)OCCNCCNc1ccc(NCCNCCOC(=O)CCCCCCC/C=C\C/C=C\C/C=C\CC)c2c1C(=O)c1ccccc1C2=O [Ametantrone dilinolenate] | 90 molecules/particle
2 | CCCCCCCC/C=C\CCCCCCCC(=O)OCCNCCNc1ccc(NCCNCCOC(=O)CCCCCCC/C=C\CCCCCCCC)c2c1C(=O)c1ccccc1C2=O [Ametantrone dioleate] | 2 molecules/particle
3 | CCCCCCCCCCCCCCCC(=O)OCCNCCNc1ccc(NCCNCCOC(=O)CCCCCCCCCCCCCCC)c2c1C(=O)c1ccccc1C2=O [Ametantrone dipalmitate] | 2 molecules/particle
4 | CCCCCCCCCCCCCCCCCC(=O)OCCNCCNc1ccc(NCCNCCOC(=O)CCCCCCCCCCCCCCCCC)c2c1C(=O)c1ccccc1C2=O [Ametantrone distearate] | 1 molecules/particle
5 | CC/C=C\C/C=C\C/C=C\CCCCCCCC(=O)OCCNCCNc1ccc(NCCNCCO)c2c1C(=O)c1ccccc1C2=O [Ametantrone monolinolenate] | 80 molecules/particle
6 | CCCCCCCC/C=C\CCCCCCCC(=O)OCCNCCNc1ccc(NCCNCCO)c2c1C(=O)c1ccccc1C2=O [Ametantrone monooleate] | 2 molecules/particle
7 | CCCCCCCCCCCCCCCC(=O)OCCNCCNc1ccc(NCCNCCO)c2c1C(=O)c1ccccc1C2=O [Ametantrone monopalmitate] | 2 molecules/particle
8 | CCCCCCCCCCCCCCCCCC(=O)OCCNCCNc1ccc(NCCNCCO)c2c1C(=O)c1ccccc1C2=O [Ametantrone monostearate] | 1 molecules/particle
9 | O=C1c2ccccc2C(=O)c2c(NCCNCCO)ccc(NCCNCCO)c21 [Ametantrone, reference compound] | 1 molecules/particle
10 | CC/C=C\C/C=C\C/C=C\CCCCCCCC(=O)OCCNCCNc1ccc(NCCNCCOC(=O)CCCCCCC/C=C\C/C=C\C/C=C\CC)c2c1C(=O)c1c(O)ccc(O)c1C2=O [Mitoxantrone dilinolenate] | 22 molecules/particle
11 | O=C1c2c(O)ccc(O)c2C(=O)c2c(NCCNCCO)ccc(NCCNCCO)c21 [Mitoxantrone, reference compound] | 1 molecules/particle

Same assay, conditions: elliptinium esters, tested by HPLC; incubation 18 hours at 37° C.

Row | quantity of drug incorporated into LDLs (uptake) | SMILES
12 | 83 μg per mg of protein | CCCCCCCC/C=C\CCCCCCCC(=O)Oc1ccc2[nH]c3c(C)c4cc[n+](C)cc4c(C)c3c2c1 [Elliptinium oleate]
13 | 58 μg per mg of protein | CCCCCCCCCCCCCCCC(=O)Oc1ccc2[nH]c3c(C)c4cc[n+](C)cc4c(C)c3c2c1 [Elliptinium palmitate]
14 | 37 μg per mg of protein | CCCCCCCCCCCCCCCCCC(=O)Oc1ccc2[nH]c3c(C)c4cc[n+](C)cc4c(C)c3c2c1 [Elliptinium stearate]
